The target in this experiment is Human Factor D (Homo sapiens (Human), UniProt P00746). Nature of the experiment: Human Factor D assay. Type of experiment: biochemical. As to the method:
The assay of Example 3 was used to determine the IC50's of the compounds. Other standard factor D inhibition assays are also available.
Human Factor D (purified from human serum, Complement Technology, Inc.) at 80 nM final concentration is incubated with test compound at various concentrations for 5 min at room temperature in 50 mM Tris, 1M NaCl, pH 7.5. A synthetic substrate Z-L-Lys-SBzI and DTNB (Ellman's reagent) are added to final concentrations of 100 μM each. Absorbance at 405 nm (A405) is recorded at 30 second intervals for 30 min using a microplate spectrophotometer. IC50 values are calculated by nonlinear regression of complement Factor D reaction rates as a function of test compound concentration.

Where [1] appears, read: Human Factor D 80 nM, substrate Z-L-Lys-SBzl, A405, read-out: IC50 (Stars).

Consider 19 compounds from patent US11814391B2, “Macrocyclic compounds for the treatment of medical disorders” (Achillion Pharmaceuticals, Inc., priority 2018, dated 2023).

SMILES strings stand for the structures. Like-named read-outs stand apart in the source and are kept apart here. Bounds are passed on as bounds.

By IC50 is commonly meant the point on the concentration scale where inhibition reaches its midpoint.

Human Factor D, sequence (P00746 26-253): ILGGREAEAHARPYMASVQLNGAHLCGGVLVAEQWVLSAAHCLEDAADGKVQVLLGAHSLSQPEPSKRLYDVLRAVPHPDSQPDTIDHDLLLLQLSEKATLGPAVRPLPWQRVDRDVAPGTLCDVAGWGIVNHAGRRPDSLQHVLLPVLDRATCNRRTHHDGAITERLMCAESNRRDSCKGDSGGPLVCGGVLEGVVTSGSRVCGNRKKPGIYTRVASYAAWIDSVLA

For `CC(=O)c1nn2c3c(cc(-c4cnc(C)nc4)cc13)CCCCC(C)(C)CC(=O)NC[C@@]13C[C@@H](C(=O)Nc4nc(C(F)(F)F)ccc4C)N(C(=O)C2)[C@@H]1C3` [Compound 26, (4^1R,4^3S,4^5R)-1^3-acetyl-9,9-dimethyl-N-(3-methyl-6-(trifluoromethyl)pyridin-2-yl)-15-(2-methylpyrimidin-5-yl)-3,7-dioxo-1^1H-4^2,6-diaza-1(1,7)-indazola-4(2,5)-bicyclo[3.1.0]hexanacyclotridecaphane-4^3-carboxamide], the IC50 under setting [1] was < 1000 nM.

With `CNc1cc2c3c(c1)c(C(C)=O)nn3CC(=O)N1[C@H](C(=O)Nc3nc(C(F)(F)F)ccc3C)C[C@@]3(CNC(=O)CCCCCC2)C[C@@H]13` [Compound 27, (4^1R,4^3S,4^5R)-1^3-acetyl-N-(3-methyl-6-(trifluoromethyl)pyridin-2-yl)-1^5-(methylamino)-3,7-dioxo-1^1H-4^2,6-diaza-1(1,7)-indazola-4(2,5)-bicyclo[3.1.0]hexanacyclotridecaphane-4^3-carboxamide], the IC50 under setting [1] was < 1000 nM. Regarding `CC(=O)c1nn2c3c(cc(CC(C)C)cc13)CCCCCCC(=O)NC[C@@]13C[C@@H](C(=O)Nc4nc(C(F)(F)F)ccc4C)N(C(=O)C2)[C@@H]1C3` [Compound 28, (4^1R,4^3S,4^5R)-1^3-acetyl-1^5-isobutyl-N-(3-methyl-6-(trifluoromethyl)pyridin-2-yl)-3,7-dioxo-1^1H-4^2,6-diaza-1(1,7)-indazola-4(2,5)-bicyclo[3.1.0]hexanacyclotridecaphane-4^3-carboxamide], the IC50 under setting [1] was < 1000 nM. With `CC(=O)c1nn2c3c(cc(-c4cnc(C)nc4)cc13)CCCCCCC(=O)NC[C@@]13C[C@@H](C(=O)NC(C)[C@H]4CC4(Cl)Cl)N(C(=O)C2)[C@@H]1C3` (stereo partly drawn) [Compound 29, (4^1R,4^3S,4^5R)-1^3-acetyl-N-((R)-1-((R)-2,2-dichlorocyclopropyl)ethyl)-1^5-(2-methylpyrimidin-5-yl)-3,7-dioxo-1^1H-4^2,6-diaza-1(1,7)-indazola-4(2,5)-bicyclo[3.1.0]hexanacyclotridecaphane-4^3-carboxamide], the IC50 under setting [1] was < 1000 nM.

With `CC(=O)c1nn2c3c(cc(-c4cnc(C)nc4)cc13)CCCCCCC(=O)NC[C@@]13C[C@@H](C(=O)N[C@@H](C)[C@H]4CC4(Cl)Cl)N(C(=O)C2)[C@@H]1C3` [Compound 30, (4^1R,4^3S,4^5R)-1^3-acetyl-N-((S)-1-((R)-2,2-dichlorocyclopropyl)ethyl)-1^5-(2-methylpyrimidin-5-yl)-3,7-dioxo-1^1H-4^2,6-diaza-1(1,7)-indazola-4(2,5)-bicyclo[3.1.0]hexanacyclotridecaphane-4^3-carboxamide], the IC50 under setting [1] is < 1000 nM. For `CC(=O)c1nn2c3c(cc(-c4cnc(C)nc4)cc13)CCCC[C@H](C)CC(=O)NC[C@@]13C[C@@H](C(=O)Nc4nc(C(F)(F)F)ccc4C)N(C(=O)C2)[C@@H]1C3` [Compound 31, (4^1R,4^3S,4^5R,9S)-1^3-acetyl-9-methyl-N-(3-methyl-6-(trifluoromethyl)pyridin-2-yl)-1^5-(2-methylpyrimidin-5-yl)-3,7-dioxo-1^1H-4^2,6-diaza-1(1,7)-indazola-4(2,5)-bicyclo[3.1.0]hexanacyclotridecaphane-4^3-carboxamide], the IC50 under setting [1] was < 1000 nM.

Consider `CC(=O)c1nn2c3c(cc(-c4cnc(C)nc4)cc13)CCCCCCCNC[C@@]13C[C@@H](C(=O)Nc4nc(C(F)(F)F)ccc4C)N(C(=O)C2)[C@@H]1C3` [Compound 32, (4^1R,4^3S,4^5R)-1^3-acetyl-N-(3-methyl-6-(trifluoromethyl)pyridin-2-yl)-1^5-(2-methylpyrimidin-5-yl)-3-oxo-1^1H-4^2,6-diaza-1(1,7)-indazola-4(2,5)-bicyclo[3.1.0]hexanacyclotridecaphane-4^3-carboxamide], for which the IC50 under setting [1] was < 1000 nM.

Turning to `CC(=O)c1nn2c3c(cc(-c4cnc(C)nc4)cc13)CNC(=O)CCCCOC[C@@]13C[C@@H](C(=O)Nc4nc(C(F)(F)F)ccc4C)N(C(=O)C2)[C@@H]1C3` [Compound 33, (4^1R,4^3S,4^5S)-1^3-acetyl-N-(3-methyl-6-(trifluoromethyl)pyridin-2-yl)-1^5-(2-methylpyrimidin-5-yl)-3,11-dioxo-1^1H-6-oxa-4^2,12-diaza-1(1,7)-indazola-4(2,5)-bicyclo[3.1.0]hexanacyclotridecaphane-4^3-carboxamide], the IC50 under setting [1] was < 1000 nM. Consider `CC(=O)c1nn2c3c(cc(-c4cnc(C)nc4)cc13)CCCC[C@@H](C)CC(=O)NC[C@@]13C[C@@H](C(=O)Nc4nc(C(F)(F)F)ccc4C)N(C(=O)C2)[C@@H]1C3` [Compound 34, (4^1R,4^3S,4^5R,9R)-1^3-acetyl-9-methyl-N-(3-methyl-6-(trifluoromethyl)pyridin-2-yl)-1^5-(2-methylpyrimidin-5-yl)-3,7-dioxo-1^1H-4^2,6-diaza-1(1,7)-indazola-4(2,5)-bicyclo[3.1.0]hexanacyclotridecaphane-4^3-carboxamide], for which, under setting [1], the IC50 is < 1000 nM.

The compound `CC(=O)c1nn2c3c(cc(-c4cnc(C)nc4)cc13)CCCCCCCCCCN([C@@H](C)C(=O)Nc1nc(Br)ccc1C)C(=O)C2` [Compound 35, (S)-2-(2-acetyl-4-(2-methylpyrimidin-5-yl)-17-oxo-8,9,10,11,12,13,14,15,17,18-decahydro-6H-[1,4]diazacyclohexadecino[15,16,1-hi]indazol-16(7H)-yl)-N-(6-bromo-3-methylpyridin-2-yl)propanamide] returned an IC50 of 1000 to 10000 nM.

Turning to `CC(=O)c1nn2c3c(cc(-c4cnc(C)nc4)cc13)CNCCCCCOC[C@@]13C[C@@H](C(=O)Nc4nc(C(F)(F)F)ccc4C)N(C(=O)C2)[C@@H]1C3` [Compound 36, (4^1R,4^3S,4^5S)-1^3-acetyl-N-(3-methyl-6-(trifluoromethyl)pyridin-2-yl)-1^5-(2-methylpyrimidin-5-yl)-3-oxo-1^1H-6-oxa-4^2,12-diaza-1(1,7)-indazola-4(2,5)-bicyclo[3.1.0]hexanacyclotridecaphane-4^3-carboxamide], under setting [1], the IC50 is < 1000 nM.

On to `CC(=O)c1nn2c3c(cc(-c4cnc(C)nc4)cc13)CNCC/C=C/COC[C@@]13C[C@@H](C(=O)Nc4nc(C(F)(F)F)ccc4C)N(C(=O)C2)[C@@H]1C3` [Compound 37, (4^1R,4^3S,4^5S,E)-1^3-acetyl-N-(3-methyl-6-(trifluoromethyl)pyridin-2-yl)-1^5-(2-methylpyrimidin-5-yl)-3-oxo-1^1H-6-oxa-4^2,12-diaza-1(1,7)-indazola-4(2,5)-bicyclo[3.1.0]hexanacyclotridecaphan-8-ene-4^3-carboxamide], for which the IC50 under setting [1] is < 1000 nM.

For the compound `CC(=O)c1nn2c3c(cc(-c4cnc(C)nc4)cc13)CCCCCCCCCc1ccc(Br)nc1NC(=O)[C@H](C)N(C)C(=O)C2` [Compound 38, (S)-13-acetyl-3-bromo-7,8-dimethyl-15-(2-methylpyrimidin-5-yl)-5,7,8,17,18,19,20,21,22,23,24,25-dodecahydro-6H-pyrido[2′,3′:8,9][1,4,7]triazacycloicosino[19,20,1-hi]indazole-6,9(10H)-dione], the half-inhibitory concentration (IC50) under setting [1] is > 10000 nM.

Take `CC(=O)c1nn2c3c(cc(NCC4CCCCC4)cc13)CCCCCCC(=O)NC[C@@]13C[C@@H](C(=O)Nc4nc(C(F)(F)F)ccc4C)N(C(=O)C2)[C@@H]1C3` [Compound 39, (4^1R,4^3S,4^5R)-1^3-acetyl-1^5-((cyclohexylmethyl)amino)-N-(3-methyl-6-(trifluoromethyl)pyridin-2-yl)-3,7-dioxo-1^1H-4^2,6-diaza-1(1,7)-indazola-4(2,5)-bicyclo[3.1.0]hexanacyclotridecaphane-4^3-carboxamide]: the IC50 under setting [1] is < 1000 nM. For the compound `CC(=O)c1nn2c3c(cc(-c4cnc(C)nc4)cc13)CCCCCCCCO[C@@H]1CCN(C(=O)C2)[C@@H]1C(=O)NCc1cccc(Cl)c1F` [Compound 40, (4^2S,4^3R)-1^3-acetyl-N-(3-chloro-2-fluorobenzyl)-1^5-(2-methylpyrimidin-5-yl)-3-oxo-1^1H-5-oxa-1(1,7)-indazola-4(1,3)-pyrrolidinacyclotridecaphane-4^2-carboxamide], the IC50 under setting [1] is < 1000 nM. Same read-out and setting: as for `CC(=O)c1nn2c3c(nc(C)cc13)C/C=C/CCCCCC(=O)NCc1ccc(Br)nc1NC(=O)[C@@H]1C[C@@]3(C)C[C@H]3N1C(=O)C2` [Compound 45, (20aS,21aR,22aR,E)-26-acetyl-17-bromo-2,21a-dimethyl-8,9,10,11,13,14,20a,21,21a,22,22a,24-dodecahydro-3,13,18,19,22b,24a,25-heptaazabenzo[15,16]cyclopropa[3′,4′]cyclopenta[1′,2′:19, 20]cyclodocosa[1,2,3-cd]indene-12,20,23(4H,7H,19H)-trione], the figure is < 1000 nM; as for `CC(=O)c1nn2c3c(cccc13)CC/C=C/CC(=O)NC[C@@]13C[C@@H](C(=O)Nc4nc(Br)ccc4C)N(C(=O)C2)[C@@H]1C3` [Compound 46, (41R,43S,45R,E)-13-acetyl-N-(6-bromo-3-methylpyridin-2-yl)-3,7-dioxo-11H-42,6-diaza-l(1,7)-indazola-4(2,5)-bicyclo[3.1.0]hexanacyclododecaphan-9-ene-43-carboxamide], < 1000 nM. Consider `CC(=O)c1nn2c3c(cccc13)CC/C=C/CCC(=O)NC[C@@]13C[C@@H](C(=O)Nc4nc(Br)ccc4C)N(C(=O)C2)[C@@H]1C3` [Compound 47, (41R,43S,45R,E)-13-acetyl-N-(6-bromo-3-methylpyridin-2-yl)-3,7-dioxo-11H-42,6-diaza-1(1,7)-indazola-4(2,5)-bicyclo[3.1.0]hexanacyclotridecaphan-10-ene-43-carboxamide], for which the IC50 under setting [1] is < 1000 nM.

On to `CC(=O)c1nn(CC(=O)N2[C@H]3C[C@]4(C[C@@H]24)Cn2cc(nn2)COCc2ccc(Br)nc2NC3=O)c2cnccc12` [Compound 48, (31R,33S,35R,Z)-32-(2-(3-acetyl-1H-pyrazolo[3,4-c]pyridin-1-yl)acetyl)-66-bromo-11H-8-oxa-32,5-diaza-6(2,3)-pyridina-1(1,4)-triazola-3(5,3)-bicyclo[3.1,0]hexanacyclononaphan-4-one], for which, under setting [1], the IC50 was < 1000 nM.
